≈ marks a conversion by molar mass, not a printed value. Like-named read-outs stand apart in the source and are kept apart here.
Columns and labels:
[1] = system: Vero cells; assay: Toxicity (half toxic concentration) in the anti-Cox_B3 test on Vero cells; assay type: cell-based
[2] = system: Cox_B3 virus; assay: Anti-Cox_B3 test: inhibition of cytopathic effect (CPE) in infected Vero cells, Reed-Muench; assay type: cell-based; conditions: for IC50: read-out: IC50 (half-inhibitory concentration for viruses)
Excerpt: The present examples verifies experimental results of anti-Cox_B3 of the compounds 1-137of the present invention, Pleconaril, 3-[3,5-dimethyl-4-[5-(3-methy-1,2-oxazolyl)propoxy]phenyl]-5-(trifluonomethyl) -1,2,4-oxadiazole is used as positive control.

[3] = Cox_B3 virus in Vero cells, CPE, Reed-Muench method

`Cc1cc(-c2noc(C(F)(F)F)n2)cc(C)c1OCCCOC1CCC(C)C(C)C1` (stereo not shown) [Compound 129, 3-[4-[3-[3,4-dimethylcyclohexyloxy]propoxy]-3,5-dimethylphenyl]-5-(trifluoromethyl)-1,2,4-oxadiazole] was tested, and the “TC50 (half of the toxic concentration)” value ([1]; Vero cells, Cox_B3) was 35.46 µg/mL and the IC50 ([2]; Vero) was 0.025 µg/mL (≈ 0.0586 µM).
In the case of `Cc1cc(-c2noc(C(F)(F)F)n2)cc(C)c1OCCOc1cc(C(F)(F)F)no1` [Compound 5, 3-[3,5-dimethyl-4-[2-(3-trifluoromethylisoxazole-5-oxy)ethoxyl]phenyl]-5-(trifluoromethyl)-1,2,4-oxadiazole], the “TC50 (half of the toxic concentration)” value ([1]; Vero cells, Cox_B3) is reported as 40.12 µg/mL and the IC50 [2, 3] is reported as 0.05 µg/mL (≈ 0.114 µM).
“3-[2,6-dimethyl-4-[(5-(trifluoromethyl)-1,2,4-oxadiazole-3-yl)phenoxyl]ethoxyl]-6-methylpyridazine [Compound 56]” was tested, and the “TC50 (half of the toxic concentration)” value [1] was 22.22 µg/mL and the “IC50 (half-inhibitory concentration for viruses)” value [2, 3] was 0.20 µg/mL.
In the case of `Cc1cc(-c2noc(C(F)(F)F)n2)cc(C)c1OCCOC(C)(C)C` [Compound 90, 3-[3,5-dimethyl-4-[(2-tert-butoxy)ethoxyl]phenyl]-5-(trifluoromethyl)-1,2,4-oxadiazole], the “TC50 (half of the toxic concentration)” value [1] is reported as 38.28 µg/mL and the “IC50 (half-inhibitory concentration for viruses)” value [2, 3] is reported as 0.15 µg/mL.
In the case of “6-[2,6-dimethyl-4-[(5-(trifluoromethyl)-1,2,4-oxadiazole-3-yl)phenoxyl]ethoxyl]-5-fluoro-3-cyanopyridine [Compound 100]”, the “TC50 (half of the toxic concentration)” value [1] is reported as 38.63 µg/mL and the “IC50 (half-inhibitory concentration for viruses)” value [2, 3] is reported as 0.069 µg/mL.
In the case of `Cc1cc(Cl)c(OCCCOc2c(C)cc(-c3noc(C(F)(F)F)n3)cc2C)c(Cl)c1` [Compound 130, 3-[4-[3-[2,6-dichloro-4-methylphenoxyl]propoxy]-3,5-dimethylphenyl]-5-(trifluoromethyl)-1,2,4-oxadiazole], the IC50 ([2]; Vero) is reported as 0.031 µg/mL (≈ 0.0652 µM).
In the case of “5-[2,6-dimethyl-4-[(5-(trifluoromethyl)-1,2,4-oxadiazole-3-yl)phenoxyl]ethoxyl]pyridine-2-oxy-ethylketoxime [Compound 99]”, the “TC50 (half of the toxic concentration)” value ([1]; Vero cells, Cox_B3) is reported as 37.81 µg/mL and the “IC50 (half-inhibitory concentration for viruses)” value [2, 3] is reported as 0.083 µg/mL.
For `Cc1cc(-c2noc(C(F)(F)F)n2)cc(C)c1OCCOc1cc(C(F)(F)F)on1` [Compound 3, 3-[3,5-dimethyl-4-[2-(5-trifluoromethylisoxazole-3-oxy)ethoxyl]phenyl]-5-(trifluoromethyl)-1,2,4-oxadiazole], the “TC50 (half of the toxic concentration)” value ([1]; Vero cells, Cox_B3) was 36.68 µg/mL and the IC50 [2, 3] was 0.18 µg/mL (≈ 0.412 µM).
For “6-[2,6-dimethyl-4-[(5-(trifluoromethyl)-1,2,4-oxadiazole-3-yl)phenoxyl]ethoxyl]-3-cyanopyridine [Compound 104]”, the “TC50 (half of the toxic concentration)” value [1] was 37.56 µg/mL and the “IC50 (half-inhibitory concentration for viruses)” value [2, 3] was 0.082 µg/mL.
“4-[2,6-dimethyl-4-(5-(trifluoromethyl)-1,2,4-oxadiazole-3-yl) phenoxyl]ethoxyl]-2-hydroxy-5-fluoropyrimidine [Compound 107]” was tested, and the “TC50 (half of the toxic concentration)” value [1] was 33.82 µg/mL and the “IC50 (half-inhibitory concentration for viruses)” value [2, 3] was 0.085 µg/mL.
With `Cc1cc(-c2noc(C(F)(F)F)n2)cc(C)c1OCCOc1ccc(-c2noc(C(F)(F)F)n2)cn1` [Compound 114, 2-[2-[2,6-dimethyl-4-[5-(trifluoromethyl)-1,2,4-oxadiazole-3-yl]phenoxyl]ethoxyl]-5-[5-(trifluoromethyl)-1,2,4-oxadiazole-3-yl]-pyridine] the “TC50 (half of the toxic concentration)” value ([1]; Vero cells, Cox_B3) was 36.32 µg/mL and the IC50 [2, 3] was 0.038 µg/mL (≈ 0.0737 µM).
With `Cc1nc(-c2ccc(OCCCOc3c(C)cc(-c4noc(C(F)(F)F)n4)cc3C)cc2)no1` [Compound 117, 3-[3,5-dimethyl-4-[3-[4-(5-methyl-1,2,4-oxadiazole-3-yl]phenoxyl]propoxy]phenyl]-5-(trifluoromethyl)-1,2,4-oxadiazole] the “TC50 (half of the toxic concentration)” value ([1]; Vero cells, Cox_B3) was 33.28 µg/mL and the IC50 [2, 3] was 0.033 µg/mL (≈ 0.0696 µM).
For `Cc1nnc(SCCOc2c(C)cc(-c3noc(C(F)(F)F)n3)cc2C)[nH]1` [Compound 25, 3-[2-[2,6-dimethyl-4-[5-(trifluoromethyl)-1,2,4-oxadiazole-3-yl]phenoxyl]ethylthio]-5-methyl-4H-1,2,4-triazole], the “TC50 (half of the toxic concentration)” value ([1]; Vero cells, Cox_B3) was 40.21 µg/mL and the IC50 [2, 3] was 0.09 µg/mL (≈ 0.225 µM).
In the case of “6-[2,6-dimethyl-4-[(5-(trifluoromethyl)-1,2,4-oxadiazole-3-yl)phenoxyl]ethoxyl]-5-trifluoromethylpyridine [Compound 106]”, the “TC50 (half of the toxic concentration)” value [1] is reported as 36.36 µg/mL and the “IC50 (half-inhibitory concentration for viruses)” value [2, 3] is reported as 0.09 µg/mL.
In the case of `Cc1cc(-c2noc(C(F)(F)F)n2)cc(C)c1OCCCOc1cnc(-c2noc(C(F)(F)F)n2)cn1` [Compound 135, 2-[5-(trifluoromethyl)-1,2,4-oxadiazole-3-yl]-5-[3-[2,6-dimethyl-4-[5-(trifluoromethyl)-1,2,4-oxadiazole-3-yl]phenoxyl]propoxy]pyrazine], the “TC50 (half of the toxic concentration)” value ([1]; Vero cells, Cox_B3) is reported as 42.18 µg/mL and the IC50 [2, 3] is reported as 0.038 µg/mL (≈ 0.0716 µM).
`Cc1cc(CCCOc2c(C)cc(-c3noc(C(F)(F)F)n3)cc2C)on1` [Pleconaril, 3-[3,5-dimethyl-4-[5-(3-methy-1,2-oxazolyl)propoxy]phenyl]-5-(trifluonomethyl) -1,2,4-oxadiazole, reference compound] was tested, and the “TC50 (half of the toxic concentration)” value ([1]; Vero cells, Cox_B3) was 17.25 µg/mL and the IC50 ([2]; Vero) was 0.04 µg/mL (≈ 0.105 µM).
With “3-[3,5-dimethyl-4-[2-(4-methylthiazole-2-thio)ethoxyl]phenyl]-5-(trifluoromethyl)-1,2,4-oxadiazole [Compound 68]” the “TC50 (half of the toxic concentration)” value [1] was 43.87 µg/mL and the “IC50 (half-inhibitory concentration for viruses)” value [2, 3] was 0.38 µg/mL.
For `Cc1cc(OCCCOc2c(C)cc(-c3noc(C(F)(F)F)n3)cc2C)on1` [Compound 8, 3-[3,5-dimethyl-4-[3-(3-methylisoxazole-5-oxy)propoxy]phenyl]-5-(trifluoromethyl)-1,2,4-oxadiazole], the “TC50 (half of the toxic concentration)” value ([1]; Vero cells, Cox_B3) was 52.38 µg/mL and the IC50 [2, 3] was 0.021 µg/mL (≈ 0.0528 µM).
With `Cc1c[nH]c(OCCOc2c(C)cc(-c3noc(C(F)(F)F)n3)cc2C)n1` [Compound 12, 3-[3,5-dimethyl-4-[2-(4-methylimidazole-2-oxy)ethoxyl]phenyl]-5-(trifluoromethyl)-1,2,4-oxadiazole] the “TC50 (half of the toxic concentration)” value ([1]; Vero cells, Cox_B3) was 40.27 µg/mL and the IC50 [2, 3] was 0.12 µg/mL (≈ 0.314 µM).
For `Cc1cc(OCCOc2c(C)cc(-c3noc(C)n3)cc2C)no1` [Compound 2, 3-[3,5-dimethyl-4-[2-(5-methylisoxazole-3-oxy)ethoxyl]phenyl]-5-methyl-1,2,4-oxadiazole], the “TC50 (half of the toxic concentration)” value ([1]; Vero cells, Cox_B3) was 58.78 µg/mL and the IC50 [2, 3] was 0.091 µg/mL (≈ 0.276 µM).
For `Cc1nnc(OCCOc2c(C)cc(-c3noc(C(F)(F)F)n3)cc2C)[nH]1` [Compound 24, 3-[2-[2,6-dimethyl-4-[5-(trifluoromethyl)-1,2,4-oxadiazole-3-yl]phenoxyl]ethoxyl]-5-methyl-4H-1,2,4-triazole], the “TC50 (half of the toxic concentration)” value ([1]; Vero cells, Cox_B3) was 42.23 µg/mL and the IC50 [2, 3] was 0.03 µg/mL (≈ 0.0783 µM).
For “3-[3,5-dimethyl-4-[2-(5-methyl-1H-imidazole-2-thio)ethoxyl]phenyl]-5-(trifluoromethyl)-1,2,4-oxadiazole [Compound 18]”, the “IC50 (half-inhibitory concentration for viruses)” value [2, 3] was 0.13 µg/mL.
`Cc1cc(-c2noc(C(F)(F)F)n2)cc(C)c1OCCCOc1cc(C(F)(F)F)no1` [Compound 9, 3-[3,5-dimethyl-4-[3-(3-trifluoromethylisoxazole-5-oxy)propoxy]phenyl]-5-(trifluoromethyl)-1,2,4-oxadiazole] showed an IC50 [2, 3] of 0.031 µg/mL (≈ 0.0687 µM).

From patent US9145405B2, “Oxadiazole compound and preparation method thereof, pharmaceutical composition and use thereof” (SHANGHAI JIAO TONG UNIVERSITY, priority 2011, dated 2015)
